Activity calls are given as the source filed them.
What was measured:
[1] = molecular target: T1, Replicative DNA helicase DnaB (Mycobacterium tuberculosis, UniProt P9WMR3); assay: DnaB intein splicing inhibitors, dose response, biochemical, cell-free fluorescence (AID 449749); assay type: functional
T1 sequence (P9WMR3 whole entry): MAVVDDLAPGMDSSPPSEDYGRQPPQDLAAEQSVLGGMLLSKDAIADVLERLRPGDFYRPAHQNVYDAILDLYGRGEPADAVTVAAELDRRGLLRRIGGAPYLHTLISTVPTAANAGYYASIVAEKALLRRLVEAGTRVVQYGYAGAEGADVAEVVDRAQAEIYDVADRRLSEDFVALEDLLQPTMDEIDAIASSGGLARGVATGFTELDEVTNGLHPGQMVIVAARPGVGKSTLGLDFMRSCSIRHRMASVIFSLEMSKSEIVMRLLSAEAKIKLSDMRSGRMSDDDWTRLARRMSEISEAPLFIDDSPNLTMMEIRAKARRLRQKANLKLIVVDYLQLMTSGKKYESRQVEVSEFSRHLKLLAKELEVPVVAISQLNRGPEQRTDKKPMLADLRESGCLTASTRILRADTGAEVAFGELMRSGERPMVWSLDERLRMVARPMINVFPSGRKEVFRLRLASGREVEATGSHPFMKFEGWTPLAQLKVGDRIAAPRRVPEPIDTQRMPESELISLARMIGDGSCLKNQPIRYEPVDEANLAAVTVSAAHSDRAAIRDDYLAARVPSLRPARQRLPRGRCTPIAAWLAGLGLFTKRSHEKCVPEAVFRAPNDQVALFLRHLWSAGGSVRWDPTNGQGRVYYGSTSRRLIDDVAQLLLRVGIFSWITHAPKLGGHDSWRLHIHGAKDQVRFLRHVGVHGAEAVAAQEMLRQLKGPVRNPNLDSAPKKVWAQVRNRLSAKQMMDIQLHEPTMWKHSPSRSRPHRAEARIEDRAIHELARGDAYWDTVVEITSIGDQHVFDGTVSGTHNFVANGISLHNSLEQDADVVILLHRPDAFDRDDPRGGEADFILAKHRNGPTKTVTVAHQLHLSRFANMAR

[2] = molecular target: Insulin receptor (Homo sapiens, UniProt P06213); assay type: functional;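 further: insulin receptor kinase tested as one member of a kinome-wide kinase panel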
Sequence of Insulin receptor (P06213 28-758 limits assumed): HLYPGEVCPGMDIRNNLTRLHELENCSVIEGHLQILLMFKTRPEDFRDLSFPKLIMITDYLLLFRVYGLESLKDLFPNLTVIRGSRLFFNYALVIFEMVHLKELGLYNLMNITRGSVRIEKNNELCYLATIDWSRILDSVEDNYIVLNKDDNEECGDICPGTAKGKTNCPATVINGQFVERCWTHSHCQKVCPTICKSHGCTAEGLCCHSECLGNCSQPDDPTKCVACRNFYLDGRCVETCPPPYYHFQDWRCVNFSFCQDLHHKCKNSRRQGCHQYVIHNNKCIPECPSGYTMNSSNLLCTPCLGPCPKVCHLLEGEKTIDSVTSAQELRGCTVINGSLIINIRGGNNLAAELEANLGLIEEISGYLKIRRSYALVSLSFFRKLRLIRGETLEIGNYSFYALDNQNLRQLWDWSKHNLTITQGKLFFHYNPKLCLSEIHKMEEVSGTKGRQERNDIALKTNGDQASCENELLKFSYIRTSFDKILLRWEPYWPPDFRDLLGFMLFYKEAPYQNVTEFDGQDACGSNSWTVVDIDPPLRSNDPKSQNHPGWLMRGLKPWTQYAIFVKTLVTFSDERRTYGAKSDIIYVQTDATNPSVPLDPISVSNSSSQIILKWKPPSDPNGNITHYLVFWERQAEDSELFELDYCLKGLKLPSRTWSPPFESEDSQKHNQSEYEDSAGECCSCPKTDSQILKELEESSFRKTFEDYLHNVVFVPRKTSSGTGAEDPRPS
Sequence of Insulin receptor (P06213 763-1382 limits assumed): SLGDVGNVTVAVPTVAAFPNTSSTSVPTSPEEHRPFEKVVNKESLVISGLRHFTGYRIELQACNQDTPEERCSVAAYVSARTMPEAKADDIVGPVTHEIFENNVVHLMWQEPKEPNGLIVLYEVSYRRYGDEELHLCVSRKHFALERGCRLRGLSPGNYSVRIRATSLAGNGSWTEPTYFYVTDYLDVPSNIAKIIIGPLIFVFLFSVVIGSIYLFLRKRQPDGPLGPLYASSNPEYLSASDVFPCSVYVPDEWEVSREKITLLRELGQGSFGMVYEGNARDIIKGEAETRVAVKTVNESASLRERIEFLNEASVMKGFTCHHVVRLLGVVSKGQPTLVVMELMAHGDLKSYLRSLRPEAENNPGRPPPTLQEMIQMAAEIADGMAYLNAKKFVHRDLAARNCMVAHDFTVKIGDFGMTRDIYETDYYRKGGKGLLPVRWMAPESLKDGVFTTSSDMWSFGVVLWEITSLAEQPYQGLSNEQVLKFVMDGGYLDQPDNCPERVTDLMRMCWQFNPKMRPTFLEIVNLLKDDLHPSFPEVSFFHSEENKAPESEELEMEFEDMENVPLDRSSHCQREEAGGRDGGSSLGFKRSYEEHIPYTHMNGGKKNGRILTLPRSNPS

[3] = molecular target: ALK tyrosine kinase receptor (Homo sapiens, UniProt Q9UM73); assay type: functional;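 further: ALK tested as one member of a kinase panel screen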
Sequence of ALK tyrosine kinase receptor (Q9UM73 whole entry): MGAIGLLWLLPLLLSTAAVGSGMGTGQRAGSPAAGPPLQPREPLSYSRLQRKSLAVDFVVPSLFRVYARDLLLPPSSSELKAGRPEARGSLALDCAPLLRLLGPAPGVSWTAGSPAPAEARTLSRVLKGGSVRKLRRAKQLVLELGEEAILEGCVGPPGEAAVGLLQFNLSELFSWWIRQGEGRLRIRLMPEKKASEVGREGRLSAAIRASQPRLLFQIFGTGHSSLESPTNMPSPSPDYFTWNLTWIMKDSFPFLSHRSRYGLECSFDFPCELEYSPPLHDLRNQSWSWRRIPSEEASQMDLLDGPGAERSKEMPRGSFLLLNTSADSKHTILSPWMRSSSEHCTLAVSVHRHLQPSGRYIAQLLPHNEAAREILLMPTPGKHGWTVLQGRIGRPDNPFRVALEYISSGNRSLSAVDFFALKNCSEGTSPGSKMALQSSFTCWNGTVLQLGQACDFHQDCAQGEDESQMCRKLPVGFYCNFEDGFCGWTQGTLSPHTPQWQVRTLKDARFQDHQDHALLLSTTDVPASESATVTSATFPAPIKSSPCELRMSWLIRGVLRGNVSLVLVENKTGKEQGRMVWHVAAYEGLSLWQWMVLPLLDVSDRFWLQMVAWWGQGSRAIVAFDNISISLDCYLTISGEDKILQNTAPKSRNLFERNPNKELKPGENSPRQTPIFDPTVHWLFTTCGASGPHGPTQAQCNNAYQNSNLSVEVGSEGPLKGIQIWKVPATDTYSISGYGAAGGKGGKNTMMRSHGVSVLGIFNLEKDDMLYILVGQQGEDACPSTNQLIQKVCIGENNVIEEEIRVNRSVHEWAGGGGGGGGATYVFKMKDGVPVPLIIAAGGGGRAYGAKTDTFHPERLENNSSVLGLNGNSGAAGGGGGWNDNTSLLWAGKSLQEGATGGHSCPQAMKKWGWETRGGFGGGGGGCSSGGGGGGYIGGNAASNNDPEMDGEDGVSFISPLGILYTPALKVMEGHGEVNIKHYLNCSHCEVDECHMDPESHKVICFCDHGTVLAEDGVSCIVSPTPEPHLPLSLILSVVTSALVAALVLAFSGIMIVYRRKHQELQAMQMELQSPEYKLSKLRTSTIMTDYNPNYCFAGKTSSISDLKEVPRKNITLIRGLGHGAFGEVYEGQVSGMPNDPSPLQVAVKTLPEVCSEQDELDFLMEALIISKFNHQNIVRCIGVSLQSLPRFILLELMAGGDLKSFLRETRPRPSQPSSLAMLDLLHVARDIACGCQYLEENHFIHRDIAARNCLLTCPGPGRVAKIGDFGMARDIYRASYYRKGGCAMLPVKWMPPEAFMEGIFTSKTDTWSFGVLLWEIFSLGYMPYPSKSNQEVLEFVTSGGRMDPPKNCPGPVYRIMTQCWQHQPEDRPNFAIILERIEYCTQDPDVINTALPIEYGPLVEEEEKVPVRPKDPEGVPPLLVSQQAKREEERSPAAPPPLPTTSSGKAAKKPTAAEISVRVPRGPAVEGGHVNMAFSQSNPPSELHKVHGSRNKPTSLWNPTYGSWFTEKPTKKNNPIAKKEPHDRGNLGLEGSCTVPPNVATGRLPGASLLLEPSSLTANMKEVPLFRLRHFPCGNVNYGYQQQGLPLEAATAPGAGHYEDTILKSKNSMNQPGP

[4] = molecular target: Lymphokine-activated killer T-cell-originated protein kinase (Homo sapiens, UniProt Q96KB5); assay type: functional;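 further: value comes from a kinase panel screen in which TOPK was one of the panel members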
Sequence of Lymphokine-activated killer T-cell-originated protein kinase (Q96KB5 whole entry): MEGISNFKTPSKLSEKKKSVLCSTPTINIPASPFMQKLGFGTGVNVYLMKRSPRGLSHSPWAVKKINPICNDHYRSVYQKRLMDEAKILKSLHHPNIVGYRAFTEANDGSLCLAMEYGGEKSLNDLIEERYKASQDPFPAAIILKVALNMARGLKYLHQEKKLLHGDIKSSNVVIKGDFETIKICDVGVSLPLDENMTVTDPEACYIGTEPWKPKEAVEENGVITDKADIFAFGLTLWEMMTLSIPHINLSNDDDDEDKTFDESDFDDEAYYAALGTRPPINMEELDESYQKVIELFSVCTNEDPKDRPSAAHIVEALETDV

[5] = molecular target: MAP/microtubule affinity-regulating kinase 3 (Homo sapiens, UniProt P27448); assay type: functional;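 further: MARK3 affinity measured as one member of a kinome panel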
[6] = molecular target: Cyclin-dependent kinase 1 (Homo sapiens, UniProt P06493); assay type: functional;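 further: Kinome-wide panel profiling, with the target listed as panel member CDC2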
Sequence of Cyclin-dependent kinase 1 (P06493 whole entry): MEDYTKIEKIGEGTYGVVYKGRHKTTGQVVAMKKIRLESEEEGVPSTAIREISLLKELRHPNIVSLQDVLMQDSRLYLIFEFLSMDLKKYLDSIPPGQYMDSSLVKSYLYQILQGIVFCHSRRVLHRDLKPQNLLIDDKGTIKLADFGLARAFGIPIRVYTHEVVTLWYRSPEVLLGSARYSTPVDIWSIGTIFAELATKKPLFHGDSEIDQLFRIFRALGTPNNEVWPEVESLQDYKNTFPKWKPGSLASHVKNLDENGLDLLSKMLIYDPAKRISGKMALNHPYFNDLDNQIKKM

[7] = molecular target: Interleukin-1 receptor-associated kinase 4 (Homo sapiens, UniProt Q9NWZ3); assay type: functional
Sequence of Interleukin-1 receptor-associated kinase 4 (Q9NWZ3 whole entry): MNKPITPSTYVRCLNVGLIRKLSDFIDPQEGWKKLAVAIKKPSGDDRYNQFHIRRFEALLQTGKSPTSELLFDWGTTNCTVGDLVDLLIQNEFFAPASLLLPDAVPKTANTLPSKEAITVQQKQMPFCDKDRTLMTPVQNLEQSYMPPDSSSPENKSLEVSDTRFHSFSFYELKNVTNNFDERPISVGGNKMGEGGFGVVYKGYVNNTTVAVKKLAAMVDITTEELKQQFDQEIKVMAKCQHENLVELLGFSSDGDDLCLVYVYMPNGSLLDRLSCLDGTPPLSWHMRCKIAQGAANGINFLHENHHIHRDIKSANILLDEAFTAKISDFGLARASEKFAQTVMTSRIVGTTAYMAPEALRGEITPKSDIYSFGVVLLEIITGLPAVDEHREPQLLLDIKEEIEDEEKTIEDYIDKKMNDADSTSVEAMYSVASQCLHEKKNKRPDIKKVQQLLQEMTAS

[8] = molecular target: cGMP-dependent protein kinase 1 (Homo sapiens, UniProt Q13976); assay type: functional;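 further: value from a kinome panel screen with PRKG1 as the panel member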
Sequence of cGMP-dependent protein kinase 1 (Q13976 whole entry): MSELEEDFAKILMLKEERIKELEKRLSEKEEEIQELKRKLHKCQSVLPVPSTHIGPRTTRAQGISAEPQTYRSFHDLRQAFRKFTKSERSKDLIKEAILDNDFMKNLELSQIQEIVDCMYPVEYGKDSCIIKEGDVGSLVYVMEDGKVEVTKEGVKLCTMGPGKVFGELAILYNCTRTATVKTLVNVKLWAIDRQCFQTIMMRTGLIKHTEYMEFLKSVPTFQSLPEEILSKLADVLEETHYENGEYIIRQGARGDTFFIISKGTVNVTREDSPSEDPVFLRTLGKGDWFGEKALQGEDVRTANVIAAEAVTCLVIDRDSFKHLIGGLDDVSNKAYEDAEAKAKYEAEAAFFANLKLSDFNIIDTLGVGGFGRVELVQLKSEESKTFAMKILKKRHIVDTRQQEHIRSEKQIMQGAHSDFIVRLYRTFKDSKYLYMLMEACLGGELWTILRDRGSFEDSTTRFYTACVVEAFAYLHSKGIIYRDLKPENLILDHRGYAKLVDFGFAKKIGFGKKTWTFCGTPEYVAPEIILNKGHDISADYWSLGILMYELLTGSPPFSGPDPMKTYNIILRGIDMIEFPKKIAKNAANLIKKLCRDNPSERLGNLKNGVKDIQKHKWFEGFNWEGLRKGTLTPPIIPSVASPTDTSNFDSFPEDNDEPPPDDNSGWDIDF

[9] = molecular target: Vascular endothelial growth factor receptor 2 (Homo sapiens, UniProt P35968); assay type: functional
[10] = molecular target: T2, Histone-lysine N-methyltransferase NSD2 (Homo sapiens, UniProt O96028); assay type: biochemical
T2 sequence (O96028 whole entry): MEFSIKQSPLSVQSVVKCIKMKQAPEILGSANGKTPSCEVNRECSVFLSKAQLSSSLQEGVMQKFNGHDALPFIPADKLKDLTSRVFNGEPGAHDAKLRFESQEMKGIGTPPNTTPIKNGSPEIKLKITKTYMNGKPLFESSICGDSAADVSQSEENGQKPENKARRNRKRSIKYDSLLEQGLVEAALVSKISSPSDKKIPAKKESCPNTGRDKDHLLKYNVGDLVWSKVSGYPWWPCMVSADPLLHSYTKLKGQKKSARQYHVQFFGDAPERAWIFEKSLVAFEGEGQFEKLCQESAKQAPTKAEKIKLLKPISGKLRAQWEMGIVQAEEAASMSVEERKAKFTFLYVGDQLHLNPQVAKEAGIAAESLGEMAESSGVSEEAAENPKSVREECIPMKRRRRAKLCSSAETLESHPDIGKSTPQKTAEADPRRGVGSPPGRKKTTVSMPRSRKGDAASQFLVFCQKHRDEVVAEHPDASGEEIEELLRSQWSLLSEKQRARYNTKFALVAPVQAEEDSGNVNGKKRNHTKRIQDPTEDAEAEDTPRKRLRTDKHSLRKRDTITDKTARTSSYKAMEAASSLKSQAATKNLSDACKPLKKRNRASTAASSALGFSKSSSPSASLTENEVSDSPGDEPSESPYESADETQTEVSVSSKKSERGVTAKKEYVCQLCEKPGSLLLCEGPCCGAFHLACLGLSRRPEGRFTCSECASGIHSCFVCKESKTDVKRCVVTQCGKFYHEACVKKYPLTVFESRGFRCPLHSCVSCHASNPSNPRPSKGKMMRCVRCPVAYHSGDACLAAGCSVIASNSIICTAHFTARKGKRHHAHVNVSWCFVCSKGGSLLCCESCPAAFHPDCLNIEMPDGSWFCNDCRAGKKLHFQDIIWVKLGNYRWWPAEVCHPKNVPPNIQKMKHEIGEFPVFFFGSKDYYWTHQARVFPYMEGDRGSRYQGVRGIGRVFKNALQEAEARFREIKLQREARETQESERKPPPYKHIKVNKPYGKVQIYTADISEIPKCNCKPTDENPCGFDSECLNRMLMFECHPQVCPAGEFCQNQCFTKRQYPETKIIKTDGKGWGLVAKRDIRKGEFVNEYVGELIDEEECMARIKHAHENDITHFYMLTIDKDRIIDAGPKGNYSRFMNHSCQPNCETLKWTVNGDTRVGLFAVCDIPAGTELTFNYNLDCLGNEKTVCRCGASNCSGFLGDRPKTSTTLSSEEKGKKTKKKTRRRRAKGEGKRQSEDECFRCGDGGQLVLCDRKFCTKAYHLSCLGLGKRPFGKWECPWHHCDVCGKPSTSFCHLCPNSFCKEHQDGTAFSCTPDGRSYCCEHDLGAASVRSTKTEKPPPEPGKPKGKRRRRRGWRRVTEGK

[11] = system: Streptococcus sp. 'group A'; assay: growth inhibition of control SK(-) GAS strain, dose response, counter-screen for streptokinase expression inhibitor project, luminescence, kanamycin, BacTiterGlo, confirmation (AID 1900); assay type: functional, organism-based
[12] = system: Streptococcus; assay: Group A Streptococcus viability loss, dose response, counter-screen for streptokinase expression inhibitor project, luminescence, BacTiterGlo (AID 1915); assay type: functional, organism-based;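 further: potency for reduction of bacterial viability or growth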
[13] = molecular target: Dual specificity tyrosine-phosphorylation-regulated kinase 1A (Rattus norvegicus, UniProt Q63470); assay type: biochemical, Homo sapiens
[14] = molecular target: SUMO-activating enzyme (Homo sapiens, UniProt Q9UBT2); assay: inhibitors of in vitro SUMOylation cascade, primary screen, biochemical, HTRF, uHTS (AID 2006); assay type: protein-complex assay

Structure (SMILES)	AC50 [1]	AC50 [10]	EC50 [11]	EC50 [12]	AC50 [13]	other results
O=[N+]([O-])c1c(Nc2ccccn2)cc(Cl)c2nonc12	1.79 µM (active)	–	–	–	–	–
CC(C)(CO)CNc1nccc(-c2c(-c3ccc(F)cc3)nc3c(CC4CC4)nccn23)n1	–	–	–	–	–	Ki [2]: > 5.01 µM (inactive); Ki [3]: > 1.26 µM (inactive); Ki [4]: 0.316 µM (active); Ki [5]: > 6.31 µM (inactive); Ki [6]: > 7.94 µM (inactive); Ki [7]: > 10 µM (inactive); Ki [8]: > 2 µM (inactive); Ki [9]: > 7.94 µM (inactive)
Cc1ccc(S(=O)(=O)/N=C2\C=C(Nc3cccc(C(=O)O)c3)C(=O)c3ccccc32)cc1	0.516 µM (active)	0.422 µM (active)	4.62 µM (active)	14.3 µM (active)	2.57 µM (active)	–
CC[C@@H](C)[C@H](CNC)NC[C@@H](Cc1cccc2ccccc12)NCCc1cccc(C(F)(F)F)c1	–	–	4.8 µM (active)	7.12 µM (active)	79 µM (active)	–
Cc1ccc(C(=O)NC2(O)C(=O)c3ccccc3C2=O)cc1C	6.24 µM (active)	6.83 µM (active)	–	–	–	IC50 [14]: 5.71 µM (active)

From ChEMBL document CHEMBL1201862, “PubChem BioAssay data set” (2004)
